Data: PMC10947197, “Acid‐Resistant BODIPY Amino Acids for Peptide‐Based Fluorescence Imaging of GPR54 Receptors in Pancreatic Islets” (Angewandte Chemie (International Ed. in English), 2023)

What was measured:
[1] = Stability analysis of Trp-BODIPY FlAAs under SPPS conditions; conditions: for Stability (purity by HPLC-MS): 70 μM; for Stability (purity by HPLC-MS) / Chemical stability (HPLC-MS): r.t.; for Chemical stability (HPLC-MS): 70 µM;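 on all read-outs here: chemical integrity of the BODIPY-labelled tryptophan amino acids checked after exposure to reagents used in solid-phase peptide synthesis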
Experimental: Next, we studied the stability of Trp‐BODIPY PLUS in TFA and compared it to that of Trp‐BODIPY (Table 2).
Analysis of t he chemical st abilit y of T rp-BO DI PY and T rp-
BODIPY PLUS under conve nt ion al SPPS condit i ons. Amino aci ds were di lut ed w it h
dif f erent rea gent mixt ur es (70 µ M , f inal v olum e 10 0 uL) a nd st irre d at r. t . f or 1 h
( c ondit i ons A-B and E-H) or 5 m i n ( c o ndit i ons C an d D).
Fmoc-T rp -BO DI PY(X)2-OH
En t ry Conditions X = F X = CN

[2] = Fluorogenic behavior in phosphatidylcholine liposome suspensions; assay type: physicochemical; conditions: PBS vs phosphatidylcholine liposome suspensions; λexc 450 nm, λem 510 nm
Experimental: Figure 1 a) Chemical structure of the Fmoc‐protected Trp‐BODIPY PLUS amino acid for general peptide synthesis. b) Fluorescence emission spectra of Trp‐BODIPY PLUS (25 μM) in phosphate buffer saline (PBS) suspensions with increasing content of phosphatidylcholine liposomes. λ exc: 450 nm. Inset) UV‐irradiated pictograms of Trp‐BODIPY PLUS in hydrophilic (bottom) and hydrophobic (top) environments. c) Peptide sequences synthesized with Trp‐BODIPY and Trp‐BODIPY PLUS, their biological targets, solid supports, protected amino acids and purities after SPPS. RA: Rink Amide, TG: TentaGel, CTC: chlorotrityl, PS: polystyrene,^[a] not determined due to degradation of BODIPY. d) Synthetic scheme and structures of KP‐10 analogues with Trp‐BODIPY PLUS instead of the native Trp (peptide 7) or at the N‐terminal end (peptide 8).
(§1) BODIPY PLUS (10 µM) in phosph ate buffer salin e (PBS, white bars) an d phosp hat idy lcho lin e li posom e susp ensi ons (gr ey bars). λ exc: 45 0 nm; λem: 51 0 nm.
(§2) V alues pr es ent e d as m ea ns ±S E M ( n= 3) .
(§3) Tr p-BODIPY P LU S (-20 °C, solid)
(§4) Tr p-BODIPY P LU S (-20 °C, DMSO)
(§5) S u p p l emen t ary F i gu re 6 . HP LC tr ac es of T r p-B O DI P Y P LUS aft er 5 m ont hs st or age in t he f r eez er as po wder ( t op) and as 5 mM DMSO s olut i ons ( bot t om ). […]
Sp ectro sco p y mea su rem en ts. […]

[3] = Photostability under continuous light irradiation; assay type: physicochemical; conditions: 50 µM, buffer, 37°C, continuous irradiation (Xe lamp, 20 W), λexc 450 nm, λem 510 nm, n=6
Experimental: (§6) S u p p l emen t ary Figure 7. Nor m alized f luoresc ence em is s ion of Trp-BODIPY PLUS ( 50 µ M , buf f er ) at 37° C und er c o nt inu ous l ight ir r adi at ion ( Xe l am p, 20 W ) . λexc: 450 nm; λem: 510 nm . V alues pr es ent e d as m eans ±S D ( n= 6).
(§7) Supplementary Figure 8 . Linear r egr es s ions of t he p eak a bs or b anc e ar ea ( m A U) of T rp-BO DI PY PLUS in DMSO (re d) an d PBS (c ont a ini ng ≤ 1% DM S O , bl ue) at d if f er ent c onc ent r at i ons of t he ami no ac id. Valu es wer e det ermi ned by HPLC-MS us ing UV det ec t ion at 51 0 nm . R2 v alues : 0. 99 9 ( r ed) , 0. 99 4 ( blu e) .
(§8) (also on this page, place not known: time (min) Normalized photostability Normalized fluorescence emission (50 µM, buffer) 37°C under continuous light irradiation (Xe lamp, W) nm; nm. Values presented means±SD (n=6). µM) Peak area (mAU) DMSO) Supplementary 8. regressions the peak absorbance area (mAU) Trp-BODIPY DMSO (red) and (containing ≤1% DMSO, blue) different concentrations the amino acid. Values were determined using detection 510 nm. values: 0.999 (red), 0.994 (blue).)

[4] = Solubility: linear regression of HPLC peak area in DMSO and PBS; assay type: physicochemical; conditions: DMSO and PBS (≤1% DMSO), HPLC-MS with UV detection at 510 nm
Experimental: as §6, §7, §8

Storage stability (HPLC) = assay type: physicochemical; conditions: 5 months in freezer (-20 °C), powder and 5 mM DMSO solution
Experimental: as §1, §2, §3, §4, §5

SMILES: CC1=CC(C)=[N+]2C1=C(c1cccc(-c3[nH]c4ccccc4c3C[C@H](NC(=O)OCC3c4ccccc4-c4ccccc43)C(=O)O)c1)c1c(C)cc(C)n1[B-]2(C#N)C#N [Trp-BODIPY PLUS]
- Stability (purity by HPLC-MS) ([1]; 2% N2H4 in DMF, 60 min): > 95%
- Stability (purity by HPLC-MS) ([1]; 95% TFA, 2.5% DTT, 60 min, DCM): > 95%
- Stability (purity by HPLC-MS) ([1]; 95% TFA, 2.5% H2O, 60 min, DCM): > 95%
- Stability (purity by HPLC-MS) ([1]; 95% TFA, 2.5% TIS, 60 min, DCM): > 95%
- Stability (purity by HPLC-MS) ([1]; 95% TFA, 5 min, DCM): > 95%
- Stability in TFA (in words) ([1]; 95% TFA, 1 h): fully resistant to TFA even after 1 h
- Stability (purity by HPLC-MS) ([1]; 95% TFA, 60 min, DCM): > 95%
- Stability (purity by HPLC-MS) ([1]; I2 (5 eq) in MeOH, 60 min): 6%
- Stability (purity by HPLC-MS) ([1]; Pd(PPh3)4 (0.1 eq), PhSiH3 (10 eq), 60 min, DCM): > 95%
- Chemical stability (HPLC-MS) ([1]; Supplementary Table 2 entry A: 1% TFA, 2.5% DTT, 1 h): > 95%
- Chemical stability (HPLC-MS) ([1]; Supplementary Table 2 entry B: 5% TFA, 2.5% DTT, 1 h): > 95%
- Chemical stability (HPLC-MS) ([1]; Supplementary Table 2 entry C: 95% TFA, 2.5% DTT, 5 min): > 95%
- Chemical stability (HPLC-MS) ([1]; Supplementary Table 2 entry D: 20% piperidine: DMF, 5 min): > 93%
- Chemical stability (HPLC-MS) ([1]; Supplementary Table 2 entry E: 5% NaHCO3 (aq), 1 h): > 95%
- Chemical stability (HPLC-MS) ([1]; Supplementary Table 2 entry F: 5% Na2CO3 (aq), 1 h): > 95%
- Chemical stability (HPLC-MS) ([1]; Supplementary Table 2 entry G: 1% DIPEA: DMF, 1 h): > 95%
- Chemical stability (HPLC-MS) ([1]; Supplementary Table 2 entry H: 0.1 M HOBt: TFE, 1 h): > 95%
- Stability (purity by HPLC-MS) ([1]; TBAF (3 eq), 60 min, DCM): > 95%
- Stability to iodine (in words) ([1]; presence of iodine): degraded in the presence of iodine
- Fluorogenic behavior (in words) [2]: strong fluorogenic behavior
- Photostability (in words) [3]: suitable solubility and photo‐ and chemical stability for long‐term storage
- Solubility (in words) [4]: suitable solubility
- Chemical stability on storage (in words) (Storage stability (HPLC)): chemical stability for long‐term storage
